{"source": "BindingDB's records for patent US12319655", "about": "(Deciphera Pharmaceuticals, 2025)", "key": {"[1]": {"biological_target": "T1, Serine/threonine-protein kinase B-raf [416-766,V600E] (Homo sapiens, UniProt P15056, V600E)", "T1 construct": "416-766", "T1 sequence (P15056 416-766 V600E)": "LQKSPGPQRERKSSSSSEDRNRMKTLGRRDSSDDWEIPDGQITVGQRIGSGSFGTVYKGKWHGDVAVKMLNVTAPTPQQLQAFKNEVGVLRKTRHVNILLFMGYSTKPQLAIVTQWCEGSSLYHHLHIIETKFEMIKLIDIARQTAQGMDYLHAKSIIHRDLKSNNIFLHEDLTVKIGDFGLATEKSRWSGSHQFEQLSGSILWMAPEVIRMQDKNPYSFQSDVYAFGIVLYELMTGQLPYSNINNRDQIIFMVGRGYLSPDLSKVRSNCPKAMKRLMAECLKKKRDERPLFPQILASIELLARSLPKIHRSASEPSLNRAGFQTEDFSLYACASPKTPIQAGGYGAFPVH", "experiment": "Biochemical Assay for B-Raf (V600E) (1)", "procedure": "Activity of B-Raf (V600E) (SEQ. ID NO: 4) kinase was determined spectroscopically using a coupled pyruvate kinase/lactate dehydrogenase assay that continuously monitors the ATP hydrolysis-dependent oxidation of NADH (e.g., Schindler et al., Science, 2000, 289, 1938-1942). Assays were conducted in 384-well plates (100 μL final volume) using 0.03 nM B-Raf (SignalChem), 1.5 units pyruvate kinase, 2.1 units lactate dehydrogenase, 1 mM phosphoenol pyruvate, 0.28 mM NADH, 30.1 nM MEK (SignalChem), and 1 mM ATP in assay buffer (100 mM Tris, Ph 7.5, 15 mM MgCl2, 0.5 mM DTT, 0.1% octyl-glucoside, 0.002% (w/v) BSA, and 0.002% Triton X-100). Inhibition of B-Raf (V600E) was measured by adding serial diluted test compound (final assay concentration of 1% DMSO). A decrease in absorption at 340 nm was monitored continuously for 6 h at 30° C. on a multi-mode microplate reader (BioTek). The reaction rate was calculated using the 3 to 4 h time frame. The reaction rate at each concentration of compound was converted to percent inhibition using controls (i.e., reaction with no test compound and reaction with a known inhibitor) and IC50 values were calculated by fitting a four-parameter sigmoidal curve to the data using Prism (GraphPad software)."}, "[2]": {"biological_target": "T2, RAF proto-oncogene serine/threonine-protein kinase [306-648,Y340D,Y341D] (Homo sapiens, UniProt P04049, Y340D/Y341D)", "T2 construct": "306-648", "T2 sequence (P04049 306-648 Y340D/Y341D)": "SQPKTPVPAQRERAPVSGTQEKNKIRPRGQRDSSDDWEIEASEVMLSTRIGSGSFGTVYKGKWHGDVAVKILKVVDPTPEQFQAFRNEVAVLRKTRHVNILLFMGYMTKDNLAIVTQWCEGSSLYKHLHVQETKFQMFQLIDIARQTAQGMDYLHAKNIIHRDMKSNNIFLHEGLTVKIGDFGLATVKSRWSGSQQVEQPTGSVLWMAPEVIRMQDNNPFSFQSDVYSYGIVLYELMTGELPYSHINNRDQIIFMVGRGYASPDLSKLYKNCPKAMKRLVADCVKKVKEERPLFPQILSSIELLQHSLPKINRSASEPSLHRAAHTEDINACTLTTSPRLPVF", "experiment": "Biochemical Assay for C-Raf (1)", "procedure": "(§1) Activity of C-Raf kinase (SEQ. ID NO: 3) was determined spectroscopically using a coupled pyruvate kinase/lactate dehydrogenase assay that continuously monitors the ATP hydrolysis-dependent oxidation of NADH (e.g., Schindler et al., Science, 2000, 289, 1938-1942). Assays were conducted in 384-well plates (100 μL final volume) using 0.43 nM C-Raf (Sigma), 1.5 units pyruvate kinase, 2.1 units lactate dehydrogenase, 1 mM phosphoenol pyruvate, 0.28 mM NADH, 30.1 nM MEK (SignalChem), and 1 mM ATP in assay buffer (100 mM Tris, Ph 7.5, 15 mM MgCl2, 0.5 mM DTT, 0.1% octyl-glucoside, 0.002% (w/v) BSA, and 0.002% Triton X-100). Inhibition of C-Raf was measured by adding serial diluted test compound (final assay concentration of 1% DMSO). A decrease in absorption at 340 nm was monitored continuously for 6 h at 30° C. on a multi-mode microplate reader (BioTek). The reaction rate was calculated using the 4 to 5 h time frame. The reaction rate at each concentration of compound was converted to percent inhibition using controls (i.e., reaction with no test compound and reaction with a known inhibitor) and IC50 values were calculated by fitting a four-parameter sigmoidal curve to the data using Prism (GraphPad software)."}, "[3]": {"biological_target": "T3, Serine/threonine-protein kinase B-raf [416-766] (UniProt P15056)", "T3 construct": "416-766", "T3 sequence (P15056 416-766)": "as the sequence (P15056 416-766 V600E) above, with E185V counted along it", "experiment": "Biochemical Assay for B-Raf (1)", "procedure": "as §1, with “B-Raf” for “C-Raf”, “2)” for “3)”, “0.13” for “0.43”"}}}
{"smiles": "Cc1ccc(NC(=O)c2ccnc(C(F)(F)F)c2)cc1-c1cc(-c2ccnc(N)c2)n(C)c(=O)c1", "note": "[US12319655, Example 53]", "values": [{"measurement": "IC50", "setting": "[1]", "result": "< 100", "unit": "nM"}]}
{"smiles": "Cc1ccc(NC(=O)c2ccnc(C(C)(C)C#N)c2)cc1-c1ccnc(-c2ccncc2)c1", "note": "[US12319655, Example 55]", "values": [{"measurement": "IC50", "setting": "[2]", "result": "< 100", "unit": "nM"}, {"measurement": "IC50", "setting": "[3]", "result": "< 100", "unit": "nM"}]}
{"smiles": "Cc1ccc(NC(=O)c2ccnc(C(F)(F)F)c2)cc1-c1cccc(-c2ccnc(NC(=O)C3CC3)c2)c1", "note": "[US12319655, Example 58]", "values": [{"measurement": "IC50", "setting": "[2]", "result": "< 100", "unit": "nM"}, {"measurement": "IC50", "setting": "[1]", "result": "< 100", "unit": "nM"}]}
{"smiles": "Cc1ccc(NC(=O)c2cnnc(C3CC3)c2)cc1-c1nccc(-c2ccnc(NC(=O)C3CC3)c2)n1", "note": "[US12319655, Example 272]", "values": [{"measurement": "IC50", "setting": "[2]", "result": "< 100", "unit": "nM"}, {"measurement": "IC50", "setting": "[3]", "result": "< 100", "unit": "nM"}]}
